From US8633005B2, “Isocyclomaltooligosaccharide(s), isocyclomaltooligosaccharide-forming enzyme, their preparation and uses” (Hayashibara Co., Ltd., priority 2004, dated 2014)

B1: ICM-forming enzyme: enzyme from Bacillus circulans AM7 (FERM BP-10111) forming ICM from α-1,4 glucans; amino acid sequence SEQ ID NO:2 (protein)
chain: ASIGTVTENDTIYQIMVDRFNDGDSSNNATGAAIRYGENSEEDFRYMKGGDWQGVIDKLPYIHNMGYTAIWISPVAEPQMTNRENNGTGKNTAYHGYNVKDPNKANPYFGTKEKLKELVDSAHALGIKVIIDVVPNHIGDYMLGTQAFYDIPSLQPAAPFNNPAWYHHNGDINWSLADGRYDQWAQDYLENHDLGGLDDIDFDVPAAKQAIFSSIKGWFDYTGADGARVDAAKLMKPTDIGELQNLLGVNTFGENFDGNAEFVSRWVGTNKEWGMLDFPLFFSVLNSFAYGQSFDANIKGTLAQDSYYGGNANHMVTFIDNHDRNRFLTEAGGSVEKLQNALSFIFTVRGTPVVFQGTEQNKGNGNGQIMTGGIADTWNRWSMVKRDANGNVLENYFNENASTFKHVAKLNEIRKNNPALRTGTQREMWSAQNLYAFSRRIDTGTNVGQEVISAFSNASGGSQTVTLPLRAESTLTAGTVLVNQLNPSDTVTVQAGGVTGKQITVTLGANSAKIYAKTQPVTDTQAPSVPGNVTATVQNASSALVSWSASTDNVGVTGYEIYRNGVKIGTSATTSFTDNGLVGSTNYSYTVKAYDAAMNLSAFSAAALIVTPAGNSVTIYYKQGYTNPYIHYRPVGGTWTTSPGVAIPAAEVAGYNKITINIGAATQLEACFNNGSGIWDSNGGSNYLFGTGTWTYTPTGNIQAGGPVTPTASPTATPTVAPTATPTVTPTPTPTATPTVAPTATPTVAPTATPVPTATPAGNTATIYYKNTAFSNSYIHYKLDGATTWTTSPGVPMQASTFSGYKSITIPLGTATGLTAAFNNGSGTWDSNGGNNYHFGTGSSSLVGGSLTTGEPQADSVTFRVSVPGSTPANAPVYLTGSFNSWNAADTAYLLTRGSDGVYSVTLNLPAGTAVTYKLTRGSWATVETTSSGADITNRTLTPAGGAQTVTISVQRWKDQ
modifications: Bacillus circulans

Tested on: not listed separately
Experiment: Optimum temperature and pH for the enzyme reaction
Assay type: biochemical, Bacillus circulans AM7
Conditions: enzyme purified from Bacillus circulans AM7; 30° C. for 30 min
Method: The enzyme activity of ICM-forming enzyme of the present invention can be assayed as follows: A substrate solution is prepared by dissolving amylose in 50 mM acetate buffer (pH 6.0) containing 1 mM CaCl2 to give a concentration of 1.25% (w/v). 0.2 ml of an enzyme solution is added to 0.8 ml of the substrate solution, and the mixture solution is incubated at 30° C. for 30 mm. After stopping the reaction by heating at about 100° C. for 10 min, the reaction mixture is admixed with 4,000 units/g-solid of α-glucosidase and 250 units/g-solid of glucoamylase to hydrolyze the remaining soluble starch and concomitant oligosaccharides, and followed by the enzyme treatment at 50° C. for one hour. The amount of ICG5 contained in the treated mixture is determined by HPLC described later in Experiment 1. One unit activity of ICM-forming enzyme is defined as the amount of enzyme which forms one μmole of ICG5 per minute under the above conditions.
The results are in FIG. 9 (Optimum temperature) and FIG. 10 (Optimum pH), respectively.

Molecule | Optimum pH
B1 | 4.5 to 8.0

Same assay, conditions: enzyme purified from Bacillus circulans AM7; pH 6.0 for 30 min

Molecule | Optimum temperature [°C]
B1 | 50 to 55

Same assay, conditions: recombinant enzyme from transformant ETAM1; 30° C. for 30 min

Molecule | Optimum pH
B1 | 4.5 to 8.0

Same assay, conditions: recombinant enzyme from transformant ETAM1; pH 6.0 for 30 min

Molecule | Optimum temperature [°C]
B1 | 50 to 55

Tested on: not listed separately
Experiment: Reducing power by the Somogyi-Nelson method
Assay type: physicochemical
Conditions: not given
Excerpt: It was concluded that Saccharides I and II were substantially non-reducing saccharides.

Molecule | Reducing power
OCC1OC2OC3C(CO)OC(OC4C(CO)OC(OC5C(CO)OC(OC6C(CO)OC(OCC7OC(OC1C(O)C2O)C(O)C(O)C7O)C(O)C6O)C(O)C5O)C(O)C4O)C(O)C3O [ICG6, cyclo{→6)-α-D-glucopyranosyl-(1→4)-α-D-glucopyranosyl-(1→4)-α-D-glucopyranosyl-(1→4)-α-D-glucopyranosyl-(1→4)-α-D-glucopyranosyl-(1→4)-α-D-glucopyranosyl-(1→}] | less than the measurable limit

Tested on: ICM-forming enzyme
Experiment: Action on various saccharides (substrate specificity, TLC)
Assay type: biochemical, Bacillus circulans AM7
Parameters: key: −: Not changed; +: Spot of substrate is slightly decreased and the formation of ICM are detected; ++: Spot of substrate is markedly decreased and the formation of ICM are detected; +++: Spot of substrate is virtually disappeared and the formation of ICM are detected
Conditions: substrate 2% (w/v), one unit/g-substrate enzyme, 40° C., pH 6.0, 24 hours
Method: Substrate specificity of ICM-forming enzyme was investigated using various saccharides as substrates. Substrate solutions were prepared by dissolving maltose, maltotriose, maltotetraose, maltopentaose, maltohexaose, maltoheptaose, neotrehalose, trehalose, kojibiose, nigerose, isomaltose, isomaltotriose, panose, isopanose, maltitol, maltotriitol, α-, β-, or γ-cyclodextrin, amylose, soluble starch, glycogen, pullulan or dextran in water. Each substrate solution was admixed with acetate buffer (pH 6.0) and CaCl2 to give final concentrations of 20 mM and 1 mM, respectively. […] Substrate concentration was set to 2% (w/v) and followed by the enzyme reaction at 40° C. and pH 6.0 for 24 hours. To examine the saccharides in each mixture before and after the reaction, saccharides were separated by silica gel thin-layer chromatography (hereinafter, simply abbreviated as “TLC”) using “KIESELGEL 60”, a TLC aluminum plate (10×20 cm) and a solvent (n-butanol/pyridine/water, volume ratio of 6:4:1) and two-times ascending method. The separated saccharides on the plate were detected by visualizing the spots with sulfate-methanol method. By the above TLC analyses, the enzymatic action and the degree of the reaction of ICM-forming enzyme on each substrate were confirmed.

Molecule | Action
OC[C@@H](O)[C@@H](O[C@H]1O[C@H](CO)[C@@H](O[C@H]2O[C@H](CO)[C@@H](O)[C@H](O)[C@H]2O)[C@H](O)[C@H]1O)[C@H](O)[C@@H](O)CO [Maltotriitol, maltotriitol] | −
maltopentaose | +++
OC[C@H]1O[C@H](OC[C@H]2O[C@H](O[C@H]3[C@H](O)[C@@H](O)C(O)O[C@@H]3CO)[C@H](O)[C@@H](O)[C@@H]2O)[C@H](O)[C@@H](O)[C@@H]1O (stereo partly drawn) [Panose, panose] | −
OC[C@H]1O[C@H](O[C@H]2[C@H](O)[C@@H](O)[C@@H](OC[C@H]3OC(O)[C@H](O)[C@@H](O)[C@@H]3O)O[C@@H]2CO)[C@H](O)[C@@H](O)[C@@H]1O (stereo partly drawn) [Isopanose, isopanose] | −
OC[C@H]1O[C@H](O[C@H]2O[C@H](CO)[C@@H](O)[C@H](O)[C@H]2O)[C@H](O)[C@@H](O)[C@@H]1O [Trehalose, trehalose] | −
OC[C@H]1O[C@H](O[C@H]2C(O)O[C@H](CO)[C@@H](O)[C@@H]2O)[C@H](O)[C@@H](O)[C@@H]1O (stereo partly drawn) [Kojibiose, kojibiose] | −
OC[C@H]1O[C@@H](O[C@H]2O[C@H](CO)[C@@H](O)[C@H](O)[C@H]2O)[C@H](O)[C@@H](O)[C@@H]1O [Neotrehalose, neotrehalose] | −
OC[C@H]1O[C@H](OC[C@H]2O[C@H](OC[C@H]3OC(O)[C@H](O)[C@@H](O)[C@@H]3O)[C@H](O)[C@@H](O)[C@@H]2O)[C@H](O)[C@@H](O)[C@@H]1O (stereo partly drawn) [Isomaltotriose, isomaltotriose] | −
maltohexaose | +++
OC[C@H]1O[C@H](OC[C@H]2OC(O)[C@H](O)[C@@H](O)[C@@H]2O)[C@H](O)[C@@H](O)[C@@H]1O (stereo partly drawn) [Isomaltose, isomaltose] | −
OC[C@@H](O)[C@@H](O[C@H]1O[C@H](CO)[C@@H](O)[C@H](O)[C@H]1O)[C@H](O)[C@@H](O)CO [Maltitol, maltitol] | −
pullulan | −
soluble starch | ++
dextran | −
OC[C@H]1O[C@H](O[C@H]2[C@H](O)[C@@H](CO)OC(O)[C@@H]2O)[C@H](O)[C@@H](O)[C@@H]1O (stereo partly drawn) [Nigerose, nigerose] | −
OC[C@H]1O[C@H](O[C@H]2[C@H](O)[C@@H](O)[C@@H](O[C@H]3[C@H](O)[C@@H](O)[C@@H](O[C@H]4[C@H](O)[C@@H](O)C(O)O[C@@H]4CO)O[C@@H]3CO)O[C@@H]2CO)[C@H](O)[C@@H](O)[C@@H]1O (stereo partly drawn) [Maltotetraose, maltotetraose] | ++
maltotriose | +
amylose | +++
glycogen | +
OC[C@H]1O[C@H](O[C@H]2[C@H](O)[C@@H](O)C(O)O[C@@H]2CO)[C@H](O)[C@@H](O)[C@@H]1O (mixture of isomers) [Maltose, maltose] | −
maltoheptaose | +++

Tested on: ICM-forming enzyme
Experiment: Effects of metal ions on the enzyme activity
Assay type: biochemical, Bacillus circulans AM7
Conditions: not given

Molecule | Relative activity [%]
[Cl-].[Cl-].[Co+2] [CoCl2] | 100

Same assay, conditions: 1 mM metal salt

Molecule | Inhibition of ICM-forming enzyme activity
[Cl][Fe]([Cl])[Cl] [FeCl3] | about 20%
[Cl][Hg][Cl] [HgCl2] | 45%
O=C(O)CN(CCN(CC(=O)O)CC(=O)O)CC(=O)O [EDTA] | inhibited slightly
[Cl][Cu][Cl] [CuCl2] | about 20%

Same assay, conditions: 1 mM metal salt; None = 100

Molecule | Relative activity [%]
[Cl-].[Cl-].[Sr+2] [SrCl2] | 100
[Cl][Fe]([Cl])[Cl] [FeCl3] | 82
[Cl][Fe][Cl] [FeCl2] | 94
[Ca+2].[Cl-].[Cl-] [CaCl2] | 105
[Cl-].[Cl-].[Zn+2] [ZnCl2] | 113
[Cl][Al]([Cl])[Cl] [AlCl3] | 106
[Cl][Hg][Cl] [HgCl2] | 55
O=C(O)CN(CCN(CC(=O)O)CC(=O)O)CC(=O)O [EDTA] | 86
[Cl][Ni][Cl] [NiCl2] | 105
[Cl][Pb][Cl] [PbCl2] | 130
[Cl][Cu][Cl] [CuCl2] | 79
[Cl][Mn][Cl] [MnCl2] | 108
[Cl-].[Cl-].[Mg+2] [MgCl2] | 110
[Ba+2].[Cl-].[Cl-] [BaCl2] | 99
